Measured values taken from US8257749B2, “Systems providing at least pesticidal activity” (Biolargo Life Technologies, Incorporated, priority 2007, dated 2012).

What was measured:
[1] = tested on: enterococci; assay: longer term experiment, sand dosed with pure culture of enterococci and imbibed with iodine solution; assay type: cell-based
Description: (§1) In a first experiment, a natural sample from Santa Monica beach was user. This soil sample was taken from an area close to a storm drain. Concentrations started at 1100 MPN enterococci per 100 gram sediment were used. Wash samples having a concentration of greater than 10 parts per million were used on the soil samples. Enterocci concentrations approached zero for all of five consecutive washes. A longer term experiment was then performed with sand dosed with a pure culture of enterococci, the >10 ppm iodine solution imbibed in the soil, and then autoclaving. The bacterial level started at 1050 MPN/100 g, and went to zero immediately upon treatment. This was clearly evidenced in five washes (all zero). Two samples were treated with >10 ppm iodine solutions and left to sit on the roof for several days. The bacterial levels were approximately zero at the end of the experiment. Samples that were imbibed with the >10 ppm solution and the sand raked, had bacterial levels that decreased in concentration during the days, and rebounded at night for two nights, and then ended up at zero, indicating effectiveness of the solution, and a benefit to combination of the solution with heat and/or light. The undisturbed controls in both dark and light ended up with countable bacteria at the end.
In a first experiment showing the efficacy of the iodine treatment on bacteria in soil, a natural sample from Santa Monica beach was user. This soil sample was taken from an area close to a storm drain. Concentrations started at 1100 MPN enterococci per 100 gram sediment were used. Wash samples having a concentration of greater than 10 parts per million were used on the soil samples. Enterocci concentrations approached zero for all of five consecutive washes. A longer term experiment was then performed with sand dosed with a pure culture of enterococci, the >10 ppm iodine solution imbibed in the soil, and then autoclaving. The bacterial level started at 1050 MPN/100 g, and went to zero immediately upon treatment. This was clearly evidenced in five washes (all zero). […]

[2] = tested on: enterococci; assay: iodine wash of natural Santa Monica beach soil sample; assay type: cell-based; conditions: started at 1100 MPN, wash samples greater than 10 parts per million, all of five consecutive washes
Description: as §1, with “end. […]” for “end.”

With `II` [iodine solution, molecular iodine] the “bacterial levels at end, imbibed and raked sand” value ([1]; >10 ppm solution, sand raked, decreased during the days, rebounded at night for two nights) was “zero”, the “bacterial level immediately upon treatment” value ([1]; sand dosed with pure culture, started at 1050 MPN/100 g, >10 ppm iodine solution imbibed, five washes (all zero)) was “zero” and the “bacterial levels at the end of the experiment” value ([1]; two samples treated with >10 ppm iodine solutions, left to sit on the roof for several days) was “approximately zero”. For the same compound, the “Enterocci concentrations after wash” value [2] was “approximately zero”.
